# In ChEMBL document CHEMBL5634174, “Biological evaluation of sulfonate and sulfate analogues of lithocholic acid: A bioisosterism-guided approach towards the discovery of potential sialyltransferase inhibitors for antimetastatic study” (Bioorg Med Chem Lett, 2024):
# Active and inactive are the calls of the source. The rule behind the calls is not given here.
# Assays:
# [1] = Selectivity index, ratio of IC50 for inhibition of rat ST3GAL1 to IC50 for inhibition of human ST6GAL1
# [2] = molecular target: Integrin alpha-5 (Homo sapiens) (UniProt P08648); assay: Inhibition of integrin alpha-5 in human MDA-MB-231 cells assessed as decrease in sialylation level incubated for 48 hrs by Western blot analysis; assay type: cell-based; conditions: dose 20-80 µM
# [3] = molecular target: Focal adhesion kinase 1 (Homo sapiens) (UniProt Q05397); assay: Inhibition of FAK phosphorylation at Y576/577 residue in human MDA-MB-231 cells incubated for 2 hrs by Western blot analysis; assay type: cell-based; conditions: dose 20-80 µM
# [4] = molecular target: Integrin alpha-V (Homo sapiens) (UniProt P06756); assay: Inhibition of integrin alpha-v in human MDA-MB-231 cells assessed as decrease in sialylation level incubated for 48 hrs by Western blot analysis; assay type: cell-based; conditions: dose 20-80 µM
# [5] = tested on: MDA-MB-231; assay: Antimigratory activity against human MDA-MB-231 cells at 60 uM incubated for 16 hrs by transwell migration assay; assay type: functional, cell-based
# [6] = molecular target: Focal adhesion kinase 1 (Homo sapiens) (UniProt Q05397); assay: Inhibition of FAK phosphorylation at Y397 residue in human MDA-MB-231 cells incubated for 2 hrs by Western blot analysis; assay type: cell-based; conditions: dose 20-80 µM
# [7] = tested on: MDA-MB-231; assay: Effect on total FAK expression level in human MDA-MB-231 cells at 20 to 80 uM incubated for 2 hrs by Western blot analysis; assay type: functional, cell-based; conditions: dose 20-80 µM
# [8] = tested on: MDA-MB-231; assay: Inhibition of cell invasion in human MDA-MB-231 cells assessed as reduction in cell adhesion at 60 uM after 48 hrs; assay type: functional, cell-based
# [9] = tested on: MDA-MB-231; assay: Inhibition of cell invasion in human MDA-MB-231 cells assessed as reduction in cell adhesion to fibronectin at 60 uM incubated for 24 hrs; assay type: functional, cell-based
# [10] = molecular target: Focal adhesion kinase 1 (Homo sapiens) (UniProt Q05397); assay: Inhibition of FAK phosphorylation at Y576/577 residue in human MDA-MB-231 cells at 80 uM incubated for 2 hrs by Western blot analysis; assay type: cell-based
# [11] = molecular target: T1, Integrin beta-5 (Homo sapiens) (UniProt P18084); assay: Inhibition of integrin beta-5 in human MDA-MB-231 cells assessed as decrease in sialylation level incubated for 48 hrs by Western blot analysis; assay type: cell-based; conditions: dose 20-80 µM
# T1 sequence (whole entry): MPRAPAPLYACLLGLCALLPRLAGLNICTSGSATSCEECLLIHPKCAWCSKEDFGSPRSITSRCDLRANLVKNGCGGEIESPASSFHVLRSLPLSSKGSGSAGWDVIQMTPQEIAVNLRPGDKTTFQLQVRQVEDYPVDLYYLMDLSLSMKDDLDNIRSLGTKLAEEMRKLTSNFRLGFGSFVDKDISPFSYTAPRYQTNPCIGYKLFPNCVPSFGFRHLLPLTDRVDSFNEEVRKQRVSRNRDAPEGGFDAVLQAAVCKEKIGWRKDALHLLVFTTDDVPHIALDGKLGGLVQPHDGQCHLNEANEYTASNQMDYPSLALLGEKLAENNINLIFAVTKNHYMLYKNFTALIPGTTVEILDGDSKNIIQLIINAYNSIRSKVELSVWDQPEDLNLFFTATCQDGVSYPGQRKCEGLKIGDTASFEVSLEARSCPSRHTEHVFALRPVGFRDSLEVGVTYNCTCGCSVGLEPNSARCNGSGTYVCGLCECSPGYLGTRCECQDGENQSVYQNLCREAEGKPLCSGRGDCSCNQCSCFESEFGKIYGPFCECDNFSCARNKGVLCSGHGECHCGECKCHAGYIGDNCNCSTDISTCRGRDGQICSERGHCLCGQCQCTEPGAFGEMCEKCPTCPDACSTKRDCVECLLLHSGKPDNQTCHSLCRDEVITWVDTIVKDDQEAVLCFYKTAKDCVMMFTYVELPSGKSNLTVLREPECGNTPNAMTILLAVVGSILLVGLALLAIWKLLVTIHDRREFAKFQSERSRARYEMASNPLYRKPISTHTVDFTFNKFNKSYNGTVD
# [12] = molecular target: Integrin beta-1 (Homo sapiens) (UniProt P05556); assay: Inhibition of integrin beta-1 in human MDA-MB-231 cells assessed as decrease in sialylation level incubated for 48 hrs by Western blot analysis; assay type: cell-based; conditions: dose 20-80 µM
# [13] = molecular target: Integrin beta-4 (Homo sapiens) (UniProt P16144); assay: Inhibition of integrin beta-4 in human MDA-MB-231 cells assessed as decrease in sialylation level incubated for 48 hrs by Western blot analysis; assay type: cell-based; conditions: dose 20-80 µM
# [14] = molecular target: Focal adhesion kinase 1 (Homo sapiens) (UniProt Q05397); assay: Inhibition of FAK phosphorylation at Y397 residue in human MDA-MB-231 cells at 80 uM incubated for 2 hrs by Western blot analysis; assay type: cell-based
# [15] = molecular target: Paxillin (Homo sapiens) (UniProt P49023); assay: Inhibition of paxillin phosphorylation at Y118 residue in human MDA-MB-231 cells at 80 uM incubated for 2 hrs by Western blot analysis; assay type: cell-based
# [16] = molecular target: T2, Integrin beta-3 (Homo sapiens) (UniProt P05106); assay: Inhibition of integrin beta-3 in human MDA-MB-231 cells assessed as decrease in sialylation level incubated for 48 hrs by Western blot analysis; assay type: cell-based; conditions: dose 20-80 µM
# T2 sequence (whole entry): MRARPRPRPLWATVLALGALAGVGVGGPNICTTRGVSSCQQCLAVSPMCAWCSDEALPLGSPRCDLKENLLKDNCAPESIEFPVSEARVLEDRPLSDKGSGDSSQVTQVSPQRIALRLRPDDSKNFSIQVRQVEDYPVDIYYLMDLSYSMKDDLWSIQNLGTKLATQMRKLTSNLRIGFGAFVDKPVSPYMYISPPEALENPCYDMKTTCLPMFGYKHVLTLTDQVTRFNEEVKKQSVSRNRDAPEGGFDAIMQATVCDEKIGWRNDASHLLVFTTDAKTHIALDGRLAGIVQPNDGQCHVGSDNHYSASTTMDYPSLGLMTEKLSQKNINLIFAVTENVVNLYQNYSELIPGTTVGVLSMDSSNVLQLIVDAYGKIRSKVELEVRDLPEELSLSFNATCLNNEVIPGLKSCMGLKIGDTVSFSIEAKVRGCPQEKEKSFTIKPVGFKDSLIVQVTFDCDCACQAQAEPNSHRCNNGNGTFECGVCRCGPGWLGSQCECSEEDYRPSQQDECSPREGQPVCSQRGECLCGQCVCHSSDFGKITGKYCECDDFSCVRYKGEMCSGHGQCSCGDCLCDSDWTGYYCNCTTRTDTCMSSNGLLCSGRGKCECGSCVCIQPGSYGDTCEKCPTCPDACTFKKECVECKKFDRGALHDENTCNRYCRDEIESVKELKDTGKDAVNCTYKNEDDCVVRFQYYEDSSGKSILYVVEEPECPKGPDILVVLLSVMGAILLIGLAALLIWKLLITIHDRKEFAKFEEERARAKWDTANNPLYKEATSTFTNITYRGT
# Chain of Focal adhesion kinase 1 (Homo sapiens) (Q05397 2-1052 limits assumed): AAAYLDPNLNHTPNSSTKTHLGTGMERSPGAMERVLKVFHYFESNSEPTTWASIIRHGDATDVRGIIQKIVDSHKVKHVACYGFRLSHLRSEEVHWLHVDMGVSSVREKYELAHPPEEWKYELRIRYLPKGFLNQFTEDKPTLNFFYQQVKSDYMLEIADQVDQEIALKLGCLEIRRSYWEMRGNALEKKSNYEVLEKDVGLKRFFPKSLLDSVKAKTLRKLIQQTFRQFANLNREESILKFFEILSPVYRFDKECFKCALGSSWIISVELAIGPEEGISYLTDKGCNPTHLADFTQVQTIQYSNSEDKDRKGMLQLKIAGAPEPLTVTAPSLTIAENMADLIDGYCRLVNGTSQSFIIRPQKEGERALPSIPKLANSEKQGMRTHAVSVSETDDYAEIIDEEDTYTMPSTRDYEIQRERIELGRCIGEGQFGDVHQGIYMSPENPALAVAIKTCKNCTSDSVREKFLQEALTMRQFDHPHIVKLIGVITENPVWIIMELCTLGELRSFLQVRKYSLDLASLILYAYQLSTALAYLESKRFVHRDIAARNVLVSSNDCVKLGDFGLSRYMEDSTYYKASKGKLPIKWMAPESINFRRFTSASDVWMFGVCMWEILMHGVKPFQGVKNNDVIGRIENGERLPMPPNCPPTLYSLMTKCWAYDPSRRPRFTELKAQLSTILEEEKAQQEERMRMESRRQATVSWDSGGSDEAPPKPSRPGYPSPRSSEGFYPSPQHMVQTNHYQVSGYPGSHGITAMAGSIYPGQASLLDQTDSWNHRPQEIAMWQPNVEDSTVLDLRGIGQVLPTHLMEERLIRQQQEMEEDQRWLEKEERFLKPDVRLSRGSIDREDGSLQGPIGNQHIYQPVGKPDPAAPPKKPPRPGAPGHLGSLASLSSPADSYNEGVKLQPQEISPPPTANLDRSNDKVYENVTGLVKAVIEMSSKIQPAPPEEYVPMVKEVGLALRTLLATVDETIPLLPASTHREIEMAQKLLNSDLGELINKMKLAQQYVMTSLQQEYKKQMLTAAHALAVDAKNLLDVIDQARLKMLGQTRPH
# Chain of Integrin alpha-V (Homo sapiens) (P06756 31-889 limits assumed): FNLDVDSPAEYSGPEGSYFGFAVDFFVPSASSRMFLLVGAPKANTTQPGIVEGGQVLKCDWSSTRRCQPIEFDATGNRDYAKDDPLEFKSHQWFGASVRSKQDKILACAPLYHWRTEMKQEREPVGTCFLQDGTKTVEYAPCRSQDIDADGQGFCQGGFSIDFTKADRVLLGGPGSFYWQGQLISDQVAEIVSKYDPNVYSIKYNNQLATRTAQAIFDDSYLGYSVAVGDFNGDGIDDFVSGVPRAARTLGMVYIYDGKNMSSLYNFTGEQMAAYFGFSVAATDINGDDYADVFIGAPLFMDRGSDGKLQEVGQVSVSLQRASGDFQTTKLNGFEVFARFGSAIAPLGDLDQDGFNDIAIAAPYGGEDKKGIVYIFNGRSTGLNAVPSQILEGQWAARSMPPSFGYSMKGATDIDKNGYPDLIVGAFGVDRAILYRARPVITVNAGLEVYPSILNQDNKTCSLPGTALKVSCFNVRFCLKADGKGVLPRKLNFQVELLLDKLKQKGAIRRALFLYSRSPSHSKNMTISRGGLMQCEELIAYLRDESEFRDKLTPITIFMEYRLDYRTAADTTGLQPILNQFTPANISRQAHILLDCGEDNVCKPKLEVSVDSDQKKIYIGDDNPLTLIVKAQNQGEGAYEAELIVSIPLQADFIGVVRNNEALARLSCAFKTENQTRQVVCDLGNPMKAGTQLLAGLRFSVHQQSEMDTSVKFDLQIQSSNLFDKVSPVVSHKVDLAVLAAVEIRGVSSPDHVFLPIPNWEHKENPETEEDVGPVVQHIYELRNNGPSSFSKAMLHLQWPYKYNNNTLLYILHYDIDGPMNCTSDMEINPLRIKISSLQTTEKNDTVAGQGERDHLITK
# Chain of Integrin alpha-V (Homo sapiens) (P06756 891-1048 limits assumed): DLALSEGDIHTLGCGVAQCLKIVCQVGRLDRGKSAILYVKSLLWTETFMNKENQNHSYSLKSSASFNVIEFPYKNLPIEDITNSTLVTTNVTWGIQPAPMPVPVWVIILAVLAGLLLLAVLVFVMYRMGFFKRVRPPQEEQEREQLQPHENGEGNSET
# Chain of Integrin beta-4 (Homo sapiens) (P16144 whole entry): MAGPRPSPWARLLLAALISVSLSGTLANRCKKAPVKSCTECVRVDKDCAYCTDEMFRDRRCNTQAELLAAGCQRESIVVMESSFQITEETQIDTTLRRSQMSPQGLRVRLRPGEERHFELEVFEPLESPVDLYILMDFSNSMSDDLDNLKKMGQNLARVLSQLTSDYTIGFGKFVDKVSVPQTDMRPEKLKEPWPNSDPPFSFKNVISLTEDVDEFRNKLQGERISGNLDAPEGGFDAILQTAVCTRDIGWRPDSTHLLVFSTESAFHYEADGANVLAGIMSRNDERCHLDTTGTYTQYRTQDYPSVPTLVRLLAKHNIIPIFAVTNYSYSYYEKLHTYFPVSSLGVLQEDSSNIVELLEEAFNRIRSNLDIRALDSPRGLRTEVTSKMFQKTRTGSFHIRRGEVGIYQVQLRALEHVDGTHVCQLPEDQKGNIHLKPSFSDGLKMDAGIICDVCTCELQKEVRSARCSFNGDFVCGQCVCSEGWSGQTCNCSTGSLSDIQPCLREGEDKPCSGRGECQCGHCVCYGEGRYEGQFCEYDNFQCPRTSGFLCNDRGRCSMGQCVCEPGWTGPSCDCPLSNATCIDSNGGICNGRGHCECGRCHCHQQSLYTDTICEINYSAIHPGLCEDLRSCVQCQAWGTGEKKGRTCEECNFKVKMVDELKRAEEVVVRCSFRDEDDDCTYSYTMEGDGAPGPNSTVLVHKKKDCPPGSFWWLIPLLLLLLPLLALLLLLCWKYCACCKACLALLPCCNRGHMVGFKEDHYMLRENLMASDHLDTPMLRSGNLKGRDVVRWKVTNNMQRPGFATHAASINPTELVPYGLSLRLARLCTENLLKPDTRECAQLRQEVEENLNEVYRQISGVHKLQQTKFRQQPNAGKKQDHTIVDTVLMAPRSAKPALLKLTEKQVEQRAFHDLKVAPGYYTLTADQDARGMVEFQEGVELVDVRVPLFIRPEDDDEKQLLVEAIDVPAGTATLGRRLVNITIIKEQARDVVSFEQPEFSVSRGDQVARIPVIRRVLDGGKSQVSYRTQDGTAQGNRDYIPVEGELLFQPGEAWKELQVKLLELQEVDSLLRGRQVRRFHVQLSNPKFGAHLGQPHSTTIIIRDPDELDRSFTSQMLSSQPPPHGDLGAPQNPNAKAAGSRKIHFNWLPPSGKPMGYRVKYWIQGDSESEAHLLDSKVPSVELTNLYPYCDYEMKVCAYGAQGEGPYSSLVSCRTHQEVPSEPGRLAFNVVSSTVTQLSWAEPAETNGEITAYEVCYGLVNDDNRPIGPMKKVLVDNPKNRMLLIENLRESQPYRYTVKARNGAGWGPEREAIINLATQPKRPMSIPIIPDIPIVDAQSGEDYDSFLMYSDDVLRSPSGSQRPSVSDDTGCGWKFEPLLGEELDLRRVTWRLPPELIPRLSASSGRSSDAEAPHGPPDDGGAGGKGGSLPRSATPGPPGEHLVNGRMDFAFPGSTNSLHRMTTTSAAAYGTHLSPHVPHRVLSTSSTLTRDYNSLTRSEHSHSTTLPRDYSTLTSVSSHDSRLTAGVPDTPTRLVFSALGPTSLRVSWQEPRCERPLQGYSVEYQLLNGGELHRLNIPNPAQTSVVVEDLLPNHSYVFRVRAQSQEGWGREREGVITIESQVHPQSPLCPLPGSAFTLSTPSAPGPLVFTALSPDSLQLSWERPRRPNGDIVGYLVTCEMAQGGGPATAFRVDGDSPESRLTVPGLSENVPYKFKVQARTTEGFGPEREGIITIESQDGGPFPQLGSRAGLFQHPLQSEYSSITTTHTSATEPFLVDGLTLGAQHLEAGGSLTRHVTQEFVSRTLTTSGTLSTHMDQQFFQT
# Chain of Integrin alpha-5 (Homo sapiens) (P08648 42-894 limits assumed): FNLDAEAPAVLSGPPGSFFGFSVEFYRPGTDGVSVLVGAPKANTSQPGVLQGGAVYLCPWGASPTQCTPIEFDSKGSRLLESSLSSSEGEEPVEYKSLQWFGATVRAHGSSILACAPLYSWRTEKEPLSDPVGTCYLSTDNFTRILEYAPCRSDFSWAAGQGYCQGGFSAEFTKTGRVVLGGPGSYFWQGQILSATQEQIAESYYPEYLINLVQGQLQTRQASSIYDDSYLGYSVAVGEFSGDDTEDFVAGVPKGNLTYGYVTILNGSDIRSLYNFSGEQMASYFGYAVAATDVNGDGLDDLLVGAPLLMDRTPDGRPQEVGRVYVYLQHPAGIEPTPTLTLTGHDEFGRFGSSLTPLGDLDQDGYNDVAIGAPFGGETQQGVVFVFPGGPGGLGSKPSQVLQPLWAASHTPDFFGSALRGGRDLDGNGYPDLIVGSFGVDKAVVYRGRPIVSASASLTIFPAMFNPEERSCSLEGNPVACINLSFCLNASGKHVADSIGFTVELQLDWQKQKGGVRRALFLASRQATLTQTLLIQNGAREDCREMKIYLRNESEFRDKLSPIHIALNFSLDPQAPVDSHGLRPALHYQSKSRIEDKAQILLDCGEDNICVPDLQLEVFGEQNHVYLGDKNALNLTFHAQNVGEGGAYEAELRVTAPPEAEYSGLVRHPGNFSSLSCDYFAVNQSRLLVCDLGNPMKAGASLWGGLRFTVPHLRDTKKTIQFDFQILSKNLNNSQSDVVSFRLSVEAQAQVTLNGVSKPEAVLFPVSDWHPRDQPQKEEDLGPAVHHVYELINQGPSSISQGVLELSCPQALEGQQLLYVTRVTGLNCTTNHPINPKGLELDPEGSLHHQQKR
# Chain of Integrin alpha-5 (Homo sapiens) (P08648 895-1049 limits assumed): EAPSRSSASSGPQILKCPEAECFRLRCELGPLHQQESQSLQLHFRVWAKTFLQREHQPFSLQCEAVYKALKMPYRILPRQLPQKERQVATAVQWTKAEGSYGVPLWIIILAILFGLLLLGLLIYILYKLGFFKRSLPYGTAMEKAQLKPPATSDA
compound,measurement,setting,value
C[C@H](CCCOS(=O)(=O)O)[C@H]1CC[C@H]2[C@@H]3CC[C@@H]4C[C@H](O)CC[C@]4(C)[C@H]3CC[C@]12C,Ratio IC50,[1],> 60
same,Activity,[2],Dose-Dependent Effect
same,inhibition,[3],Dose-Dependent Effect
same,Activity,[4],Dose-Dependent Effect
same,Activity,[5],Active
same,inhibition,[6],Dose-Dependent Effect
same,Activity,[7],inactive
same,inhibition,[8],inactive
same,inhibition,[9],Active
same,inhibition,[10],Active
same,Activity,[11],Dose-Dependent Effect
same,Activity,[12],Dose-Dependent Effect
same,Activity,[13],Dose-Dependent Effect
same,inhibition,[14],Active
same,inhibition,[15],Active
same,Activity,[16],Dose-Dependent Effect
